In publication PMC11154582, “Modeling the Blood-Brain Barrier Permeability of Potential Heterocyclic Drugs via Biomimetic IAM Chromatography Technique Combined with QSAR Methodology” (Molecules, 2024):
Read-outs that look alike come from different tables or passages of the source.

Legend:
[1] = Biomimetic IAM chromatography (log kw, IAM); assay type: physicochemical; conditions: IAM.PC.DD2 column, buffered acetonitrile, pH 7.4, 25 °C, extrapolated to buffer
Experimental: High performance liquid chromatography (HPLC) measurements were performed on a Shimadzu Vp liquid chromatographic system (Shimadzu, Izabelin, Poland). This instrument was equipped with LC 10AT pump, SPD 10A ultraviolet-visible detector, SCL 10A system controller, CTO-10 AS chromatographic oven, and a Rheodyne injector valve with a 20 μL loop. As the stationary phase Regis IAM.PC.DD2 column, 100 × 4.6 mm i.d., 10 μm (Morton Grove, IL, USA) was applied.
Buffered acetonitrile mixtures were used as effluents. Acetonitrile concentration, expressed as a volume fraction, was varied within a range from 0.2 to 0.5, with a constant step of 0.1. The buffer was prepared from 0.01 mol L^−1 solutions of Na2HPO4 and citric acid, and a pH value of 7.4 was fixed before mixing with an organic modifier. The flow rate was 1.3 mL min^−1. Each compound sample was dissolved in acetonitrile to obtain a concentration of 0.005 mg mL^−1, and each solute peak was detected under ultraviolet light at a wavelength of λmax = 254 nm. Each measurement was performed at a constant temperature (25 °C) at least three times. The dead time values were measured from sodium chloride peaks.
From among 126 heterocyclic compounds evaluated in this work (Table 1), 89 structures have been investigated previously on the IAM column: these are molecules from groups III, IV, V, VI, VII, VIII, IX, XI, XIII, and XV [21, 22, 23]. The remaining ones, i.e., 37 compounds from groups I, II, X, XII and XIV, were tested in this study for the first time using the biomimetic IAM chromatographic technique. To calculate the log kw values (i.e., the logarithms of retention parameter in the buffer as the mobile phase), the retention parameters, logs k (k = (tr − t0)/t0; where tr is the solute retention time, and t0 is a dead time), that were measured for all tested compounds, were used according to Soczewiński-Wachtmeister’s equation (Equation (5)): (5) log k=logtr−t0/t0=log kw−sφ where φ denotes the volume fraction of acetonitrile as organic modifier in the mobile phase, and kw means the retention parameter corresponding to buffer as the mobile phase. The log kw values were evaluated as linear regression coefficients (Table 2).

[2] = test system: human cancer cells; design: method as in ref [3,9,10,13,18-21] (a number printed in a supplementary file, which may have a reference list of its own: not looked up in the article's list); conditions: supplement ref [3,9,10,13,18-21]; cited from earlier work
[3] = IAM column, cited from earlier work
[4] = test system: human cancer cells; design: method as in ref [3-7,9-15,17-21] (a number printed in a supplementary file, which may have a reference list of its own: not looked up in the article's list); conditions: supplement ref [3-7,9-15,17-21]; cited from earlier work
[5] = design: method as in ref [8,16] (a number printed in a supplementary file, which may have a reference list of its own: not looked up in the article's list); conditions: supplement ref [8,16]; cited from earlier work
[6] = test system: central nervous system of mice; design: method as in PMID 24157086; conditions: preliminary tests, ref [21]; cited from earlier work

With `c1ccc(N2CCn3cnnc32)cc1` [Compound 1] the “log kw, IAM” value [1] was 0.10.
With `Cc1ccc(N2CCn3cnnc32)cc1` [Compound 2] the “log kw, IAM” value [1] was 0.41.
In the case of `COc1ccc(N2CCn3cnnc32)cc1` [Compound 3], the “log kw, IAM” value [1] is reported as 0.10.
In the case of `Clc1cccc(N2CCn3cnnc32)c1` [Compound 4], the “log kw, IAM” value [1] is reported as 0.64.
In the case of `Clc1ccc(N2CCn3cnnc32)cc1Cl` [Compound 5], the “log kw, IAM” value [1] is reported as 1.18.
In the case of `c1ccc(OCc2nnc3n2CCN3c2ccccc2)cc1` [Compound 6], the “log kw, IAM” value [1] is reported as 0.11.
In the case of `COc1ccc(N2CCn3c(COc4ccc(Cl)cc4)nnc32)cc1` [Compound 7], the “log kw, IAM” value [1] is reported as 0.06.
For `Cc1cc(Cl)ccc1OCc1nnc2n1CCN2c1ccccc1` [Compound 8], the “log kw, IAM” value [1] is given as 0.09 and the “mechanism of antiproliferative action: inducing DNA damage” value [2] is given as “DNA damage”.
For `Clc1ccc(OCc2nnc3n2CCN3c2ccc(Cl)cc2)cc1` [Compound 10], the “log kw, IAM” value [1] was 1.86.
For `Cc1cc(Cl)ccc1OCc1nnc2n1CCN2c1ccc(Cl)cc1` [Compound 11], the “log kw, IAM” value [1] was 2.14.
For `Clc1ccc(N2CCn3c(COc4ccc(Cl)cc4Cl)nnc32)cc1` [Compound 12], the “log kw, IAM” value [1] was 2.25.
In the case of `Clc1ccc(N2CCn3c(COc4cc(Cl)c(Cl)cc4Cl)nnc32)cc1` [Compound 14], the “log kw, IAM” value [1] is reported as 2.55.
For `COc1ccccc1N1CCn2c1nnc(C(F)(F)F)c2=O` [Compound 18], the “log kw, IAM” value ([3]; ref [22]) is given as 0.67 and the “mechanism of antiproliferative action: promoting apoptotic caspases” value (“mechanism … promoting apoptotic caspases” for short) [2] is given as “promoting apoptotic caspases”.
In the case of `O=c1c(C(F)(F)F)nnc2n1CCN2c1ccccc1Cl` [Compound 19], the “log kw, IAM” value ([3]; ref [22]) is given as 0.88 and the “mechanism … promoting apoptotic caspases” value [2] is given as “promoting apoptotic caspases”.
For `CC(C)c1nnc2n(c1=O)CCN2c1ccccc1Cl` [Compound 31], the “log kw, IAM” value ([3]; ref [22]) is given as 0.65 and the “mechanism … promoting apoptotic caspases” value [2] is given as “promoting apoptotic caspases”.
In the case of `CC(C)c1nnc2n(c1=O)CCN2c1ccc(Cl)cc1` [Compound 33], the “log kw, IAM” value ([3]; ref [22]) is given as 1.39 and the “mechanism … promoting apoptotic caspases” value [2] is given as “promoting apoptotic caspases”.
In the case of `CC(C)c1nnc2n(c1=O)CCN2c1ccc(Cl)c(Cl)c1` [Compound 34], the “log kw, IAM” value ([3]; ref [22]) is listed as 1.67 and the “mechanism … promoting apoptotic caspases” value [2] is listed as “promoting apoptotic caspases”.
In the case of `CCOC(=O)c1nnc2n(c1=O)CCN2c1cccc(Cl)c1` [Compound 37], the “log kw, IAM” value ([3]; ref [22]) is listed as 1.73 and the antitumor activity [4] is listed as “antitumor”.
For `CCOC(=O)c1nnc2n(c1=O)CCN2c1ccc(Cl)c(Cl)c1` [Compound 39], the “log kw, IAM” value ([3]; ref [22]) is listed as 3.36 and the antitumor activity [4] is listed as “antitumor”.
In the case of `COC(=O)Cc1nnc2n(c1=O)CCN2c1ccc(C)cc1` [Compound 41], the “log kw, IAM” value ([3]; ref [23]) is listed as 1.33 and the analgesic activity [5] is listed as “analgesic”.
In the case of `COC(=O)Cc1nnc2n(c1=O)CCN2c1ccc(OC)cc1` [Compound 42], the “log kw, IAM” value ([3]; ref [23]) is given as 0.81 and the analgesic activity [5] is given as “analgesic”.
In the case of `CCOC(=O)Cc1nnc2n(c1=O)CCN2c1ccccc1` [Compound 45], the “log kw, IAM” value ([3]; ref [23]) is given as 1.21, the “mechanism of antiproliferative action: promoting apoptosis” value (shortened to “mechanism … promoting apoptosis”) [2] is given as “apoptosis” and the “mechanism of antiproliferative action: promoting necrosis” value (shortened to “mechanism … promoting necrosis”) [2] is given as “necrosis”.
In the case of `CCOC(=O)Cc1nnc2n(c1=O)CCN2c1cccc(Cl)c1` [Compound 48], the “log kw, IAM” value ([3]; ref [23]) is given as 2.05, the “mechanism … promoting apoptosis” value [2] is given as “apoptosis” and the “mechanism … promoting necrosis” value [2] is given as “necrosis”.
In the case of `CCOC(=O)Cc1nnc2n(c1=O)CCN2c1ccc(Cl)c(Cl)c1` [Compound 50], the “log kw, IAM” value ([3]; ref [23]) is given as 2.42, the “mechanism … promoting apoptosis” value [2] is given as “apoptosis” and the “mechanism … promoting necrosis” value [2] is given as “necrosis”.
For `NNC(=O)c1nnc2n(c1=O)CCN2c1ccccc1` [Compound 51], the “log kw, IAM” value ([3]; ref [21]) is listed as −0.14 and the analgesic activity [5] is listed as “analgesic”.
For `NNC(=O)c1nnc2n(c1=O)CCN2c1cccc(Cl)c1` [Compound 54], the “log kw, IAM” value ([3]; ref [21]) is given as 0.41, the antitumor activity [4] is given as “antitumor” and the “mechanism of antiproliferative action: inducing DNA damage” value [2] is given as “DNA damage”. The “mechanism … promoting apoptosis” value [2] was “apoptosis”.
With `NNC(=O)Cc1nnc2n(c1=O)CCN2c1ccccc1` [Compound 56] the “log kw, IAM” value [1] was 0.40.
For `Cc1ccc(N2CCn3c2nnc(CC(=O)NN)c3=O)cc1` [Compound 57], the “log kw, IAM” value [1] was 0.13.
In the case of `CCOc1ccc(N2CCn3c2nnc(CC(=O)NN)c3=O)cc1` [Compound 59], the “log kw, IAM” value [1] is reported as 0.06.
For `NNC(=O)Cc1nnc2n(c1=O)CCN2c1ccc(Cl)cc1` [Compound 60], the “log kw, IAM” value [1] was 0.32.
For `O=c1c(-c2cccs2)nnc2n1CCN2c1ccccc1` [Compound 72], the “log kw, IAM” value [1] was 1.64.
With `Cc1ccccc1N1CCn2c1nnc(-c1cccs1)c2=O` [Compound 73] the “log kw, IAM” value [1] was 1.54.
For `Cc1ccc(N2CCn3c2nnc(-c2cccs2)c3=O)cc1` [Compound 74], the “log kw, IAM” value [1] was 1.94.
For `Cc1cccc(N2CCn3c2nnc(-c2cccs2)c3=O)c1C` [Compound 75], the “log kw, IAM” value [1] was 1.17.
For `COc1ccccc1N1CCn2c1nnc(-c1cccs1)c2=O` [Compound 76], the “log kw, IAM” value [1] was 1.50.
In the case of `O=c1c(-c2cccs2)nnc2n1CCN2c1ccccc1Cl` [Compound 77], the “log kw, IAM” value [1] is reported as 1.75.
For `O=c1c(-c2cccs2)nnc2n1CCN2c1cccc(Cl)c1` [Compound 78], the “log kw, IAM” value [1] was 2.26.
With `O=c1c(-c2cccs2)nnc2n1CCN2c1ccc(Cl)cc1` [Compound 79] the “log kw, IAM” value [1] was 1.53.
For `O=c1c(-c2cccs2)nnc2n1CCN2c1ccc(Cl)c(Cl)c1` [Compound 80], the “log kw, IAM” value [1] is given as 2.68, the “mechanism … promoting apoptosis” value [2] is given as “apoptosis” and the “mechanism … promoting necrosis” value [2] is given as “necrosis”.
For `O=c1c(-c2ccccc2)nnc2n1CCN2c1ccc(Cl)cc1` [Compound 91], the “log kw, IAM” value ([3]; ref [23]) is listed as 2.57 and the analgesic activity [5] is listed as “analgesic”.
With `O=c1c(-c2ccc([N+](=O)[O-])cc2)nnc2n1CCN2c1ccccc1` [Compound 93] the “log kw, IAM” value [1] was 1.92.
In the case of `Cc1ccccc1N1CCn2c1nnc(-c1ccc([N+](=O)[O-])cc1)c2=O` [Compound 94], the “log kw, IAM” value [1] is reported as 2.52.
In the case of `Cc1ccc(N2CCn3c2nnc(-c2ccc([N+](=O)[O-])cc2)c3=O)cc1` [Compound 95], the “log kw, IAM” value [1] is reported as 1.83.
For `COc1ccccc1N1CCn2c1nnc(-c1ccc([N+](=O)[O-])cc1)c2=O` [Compound 96], the “log kw, IAM” value [1] was 1.78.
With `Cc1cccc(N2CCn3c2nnc(-c2ccc([N+](=O)[O-])cc2)c3=O)c1C` [Compound 97] the “log kw, IAM” value [1] was 1.78.
In the case of `O=c1c(-c2ccc([N+](=O)[O-])cc2)nnc2n1CCN2c1ccccc1Cl` [Compound 98], the “log kw, IAM” value [1] is reported as 2.16.
With `O=c1c(-c2ccc([N+](=O)[O-])cc2)nnc2n1CCN2c1cccc(Cl)c1` [Compound 99] the “log kw, IAM” value [1] was 2.02.
For `O=c1c(-c2ccc([N+](=O)[O-])cc2)nnc2n1CCN2c1ccc(Cl)cc1` [Compound 100], the “log kw, IAM” value [1] was 2.52.
With `O=c1c(-c2ccc([N+](=O)[O-])cc2)nnc2n1CCN2c1ccc(Cl)c(Cl)c1` [Compound 101] the “log kw, IAM” value [1] was 3.22.
For `O=c1c(Cc2ccccc2Cl)nnc2n1CCN2c1ccccc1` [Compound 103], the “log kw, IAM” value ([3]; ref [23]) is listed as 2.34, the analgesic activity [6] is listed as “analgesic activity” and the toxicity [6] is listed as “low toxicity”. For the same compound, the analgesic activity [5] was “analgesic”.
In the case of `CCOc1ccc(N2CCn3c2nnc(Cc2ccccc2)c3=O)cc1` [Compound 112], the “log kw, IAM” value ([3]; ref [23]) is given as 2.11 and the analgesic activity [5] is given as “analgesic”.
